# Tested on: MDCK-II
# Assay: Induction of claudin-1 mediated tight junction opening in MDCK-II cells assessed as increase in FITC-conjugated dextran incubated for 5 hrs relative to control
# Assay type: cell-based
# Design: concentration or dose not given beside the values
# Conditions: Canis lupus familiaris
structure (smiles),measurement,setting,value
CCCC(=O)N[C@@H](CC(C)C)C(=O)N[C@H](CCC(=O)O)C(=O)N[C@H](CCC(N)=O)C(=O)N[C@@H](C(=O)N[C@H](CC(C)C)C(=O)N[C@@H](CCC(N)=O)C(=O)N[C@@H]1COC(=O)[C@H]([C@@H](C)CC)NC(=O)[C@@H](CCC(N)=O)NC(=O)[C@H](CC(C)C)NC(=O)[C@H](CC(C)C)NC(=O)[C@@H](CCC(N)=O)NC(=O)[C@@H](CC(C)C)NC(=O)[C@@H](C(C)C)NC1=O)C(C)C,Activity,,-1%
CCCCCCCCCC(=O)N[C@@H](CC(C)C)C(=O)N[C@H](CCC(=O)O)C(=O)N[C@H](CCC(N)=O)C(=O)N[C@@H](C(=O)N[C@H](CC(C)C)C(=O)N[C@@H](CCC(N)=O)C(=O)N[C@H]1COC(=O)[C@H]([C@@H](C)CC)NC(=O)[C@@H](CCC(N)=O)NC(=O)[C@H](CC(C)C)NC(=O)[C@H](CC(C)C)NC(=O)[C@@H](CCC(N)=O)NC(=O)[C@@H](CC(C)C)NC(=O)[C@@H](C(C)C)NC1=O)C(C)C,Activity,,2.3%
CCCCCCCCCC(=O)N[C@@H](CC(C)C)C(=O)N[C@H](CCC(=O)O)C(=O)N[C@H](CCC(N)=O)C(=O)N[C@@H](C(=O)N[C@H](CC(C)C)C(=O)N[C@@H](CCC(N)=O)C(=O)N[C@@H]1COC(=O)[C@H]([C@@H](C)CC)NC(=O)[C@H](CCC(N)=O)NC(=O)[C@H](CC(C)C)NC(=O)[C@H](CC(C)C)NC(=O)[C@@H](CCC(N)=O)NC(=O)[C@@H](CC(C)C)NC(=O)[C@@H](C(C)C)NC1=O)C(C)C,Activity,filed as opener,63.3%
CCCCCCC[C@@H](O)CC(=O)N[C@@H](CC(C)C)C(=O)N[C@H](CCC(=O)O)C(=O)N[C@H](CCC(N)=O)C(=O)N[C@@H](C(=O)N[C@H](CC(C)C)C(=O)N[C@@H](CCC(N)=O)C(=O)N[C@@H]1COC(=O)[C@H](C)NC(=O)[C@@H](CCC(N)=O)NC(=O)[C@H](CC(C)C)NC(=O)[C@H](CC(C)C)NC(=O)[C@@H](CCC(N)=O)NC(=O)[C@@H](CC(C)C)NC(=O)[C@@H](C(C)C)NC1=O)C(C)C,Activity,,0.2%
CCCCCCCCCC(=O)N[C@H](CC(C)C)C(=O)N[C@H](CCC(=O)O)C(=O)N[C@H](CCC(N)=O)C(=O)N[C@@H](C(=O)N[C@H](CC(C)C)C(=O)N[C@@H](CCC(N)=O)C(=O)N[C@@H]1COC(=O)[C@H]([C@@H](C)CC)NC(=O)[C@@H](CCC(N)=O)NC(=O)[C@H](CC(C)C)NC(=O)[C@H](CC(C)C)NC(=O)[C@@H](CCC(N)=O)NC(=O)[C@@H](CC(C)C)NC(=O)[C@@H](C(C)C)NC1=O)C(C)C,Activity,filed as opener,56.8%
CCCCCCCCCC(=O)N[C@@H](CC(C)C)C(=O)N[C@H](CCC(=O)O)C(=O)N[C@H](CCC(N)=O)C(=O)N[C@@H](C(=O)N[C@@H](CC(C)C)C(=O)N[C@@H](CCC(N)=O)C(=O)N[C@@H]1COC(=O)[C@H]([C@@H](C)CC)NC(=O)[C@@H](CCC(N)=O)NC(=O)[C@H](CC(C)C)NC(=O)[C@H](CC(C)C)NC(=O)[C@@H](CCC(N)=O)NC(=O)[C@@H](CC(C)C)NC(=O)[C@@H](C(C)C)NC1=O)C(C)C,Activity,filed as opener,48.8%
CCCCCCCCCC(=O)N[C@@H](CC(C)C)C(=O)N[C@H](CCC(=O)O)C(=O)N[C@H](CCC(N)=O)C(=O)N[C@@H](C(=O)N[C@H](CC(C)C)C(=O)N[C@@H](CCC(N)=O)C(=O)N[C@@H]1COC(=O)[C@H]([C@@H](C)CC)NC(=O)[C@@H](CCC(N)=O)NC(=O)[C@H](CC(C)C)NC(=O)[C@@H](CC(C)C)NC(=O)[C@@H](CCC(N)=O)NC(=O)[C@@H](CC(C)C)NC(=O)[C@@H](C(C)C)NC1=O)C(C)C,Activity,,-2%
CCCCCCC[C@@H](O)CC(=O)N[C@@H](CC(C)C)C(=O)N[C@H](CCC(=O)O)C(=O)N[C@H](CCC(N)=O)C(=O)N[C@H](C)C(=O)N[C@H](CC(C)C)C(=O)N[C@@H](CCC(N)=O)C(=O)N[C@@H]1COC(=O)[C@H]([C@@H](C)CC)NC(=O)[C@@H](CCC(N)=O)NC(=O)[C@H](CC(C)C)NC(=O)[C@H](CC(C)C)NC(=O)[C@@H](CCC(N)=O)NC(=O)[C@@H](CC(C)C)NC(=O)[C@@H](C(C)C)NC1=O,Activity,,14.4%
CCCCCCC[C@@H](O)CC(=O)N[C@@H](CC(C)C)C(=O)N[C@H](CCC(=O)O)C(=O)N[C@H](CCC(N)=O)C(=O)N[C@@H](C(=O)N[C@H](CC(C)C)C(=O)N[C@@H](CCC(N)=O)C(=O)N[C@@H]1COC(=O)[C@H]([C@@H](C)CC)NC(=O)[C@@H](CCC(N)=O)NC(=O)[C@H](C)NC(=O)[C@H](CC(C)C)NC(=O)[C@@H](CCC(N)=O)NC(=O)[C@@H](CC(C)C)NC(=O)[C@@H](C(C)C)NC1=O)C(C)C,Activity,,9.8%
CC[C@H](C)[C@@H]1NC(=O)[C@@H](CCC(N)=O)NC(=O)[C@H](CC(C)C)NC(=O)[C@H](CC(C)C)NC(=O)[C@@H](CCC(N)=O)NC(=O)[C@@H](CC(C)C)NC(=O)[C@@H](C(C)C)NC(=O)[C@H](NC(=O)[C@H](CCC(N)=O)NC(=O)[C@@H](CC(C)C)NC(=O)[C@H](NC(=O)[C@@H](CCC(N)=O)NC(=O)[C@@H](CCC(=O)O)NC(=O)[C@H](CC(C)C)NC(=O)CCC2CCCCC2)C(C)C)COC1=O,Activity,,18.7%
CCCCCCCCCC(=O)N[C@@H](CC(C)C)C(=O)N[C@H](CCC(=O)O)C(=O)N[C@H](CCC(N)=O)C(=O)N[C@@H](C(=O)N[C@H](CC(C)C)C(=O)N[C@@H](CCC(N)=O)C(=O)N[C@@H]1COC(=O)[C@@H]([C@@H](C)CC)NC(=O)[C@@H](CCC(N)=O)NC(=O)[C@H](CC(C)C)NC(=O)[C@H](CC(C)C)NC(=O)[C@@H](CCC(N)=O)NC(=O)[C@@H](CC(C)C)NC(=O)[C@@H](C(C)C)NC1=O)C(C)C,Activity,,18.3%
CCCCCCCCCC(=O)N[C@@H](CC(C)C)C(=O)N[C@H](CCC(=O)O)C(=O)N[C@H](CCC(N)=O)C(=O)N[C@H](C(=O)N[C@H](CC(C)C)C(=O)N[C@@H](CCC(N)=O)C(=O)N[C@@H]1COC(=O)[C@H]([C@@H](C)CC)NC(=O)[C@@H](CCC(N)=O)NC(=O)[C@H](CC(C)C)NC(=O)[C@H](CC(C)C)NC(=O)[C@@H](CCC(N)=O)NC(=O)[C@@H](CC(C)C)NC(=O)[C@@H](C(C)C)NC1=O)C(C)C,Activity,,8.6%
CCCCCCC[C@@H](O)CC(=O)N[C@@H](CC(C)C)C(=O)N[C@H](CCC(=O)O)C(=O)N[C@H](CCC(N)=O)C(=O)N[C@@H](C(=O)N[C@H](C)C(=O)N[C@@H](CCC(N)=O)C(=O)N[C@@H]1COC(=O)[C@H]([C@@H](C)CC)NC(=O)[C@@H](CCC(N)=O)NC(=O)[C@H](CC(C)C)NC(=O)[C@H](CC(C)C)NC(=O)[C@@H](CCC(N)=O)NC(=O)[C@@H](CC(C)C)NC(=O)[C@@H](C(C)C)NC1=O)C(C)C,Activity,,9.2%
CCCCCCC[C@@H](O)CC(=O)N[C@@H](CC(C)C)C(=O)N[C@H](CCC(=O)O)C(=O)N[C@H](CCC(N)=O)C(=O)N[C@@H](C(=O)N[C@H](CC(C)C)C(=O)N[C@@H](CCC(N)=O)C(=O)N[C@@H]1COC(=O)[C@H]([C@@H](C)CC)NC(=O)[C@@H](CCC(N)=O)NC(=O)[C@H](CC(C)C)NC(=O)[C@H](CC(C)C)NC(=O)[C@@H](CCC(N)=O)NC(=O)[C@@H](C)NC(=O)[C@@H](C(C)C)NC1=O)C(C)C,Activity,,10.9%
CCCCCCCCCC(=O)N[C@@H](CC(C)C)C(=O)N[C@H](CCC(=O)O)C(=O)N[C@@H](CCC(N)=O)C(=O)N[C@@H](C(=O)N[C@H](CC(C)C)C(=O)N[C@@H](CCC(N)=O)C(=O)N[C@@H]1COC(=O)[C@H]([C@@H](C)CC)NC(=O)[C@@H](CCC(N)=O)NC(=O)[C@H](CC(C)C)NC(=O)[C@H](CC(C)C)NC(=O)[C@@H](CCC(N)=O)NC(=O)[C@@H](CC(C)C)NC(=O)[C@@H](C(C)C)NC1=O)C(C)C,Activity,,17.6%
CCCCCCC[C@@H](O)CC(=O)N[C@@H](CC(C)C)C(=O)N[C@H](CCC(=O)O)C(=O)N[C@H](CCC(N)=O)C(=O)N[C@@H](C(=O)N[C@H](CC(C)C)C(=O)N[C@@H](CCC(N)=O)C(=O)N[C@@H]1COC(=O)[C@H]([C@@H](C)CC)NC(=O)[C@@H](CCC(N)=O)NC(=O)[C@H](CC(C)C)NC(=O)[C@H](CC(C)C)NC(=O)[C@@H](CCC(N)=O)NC(=O)[C@@H](CC(C)C)NC(=O)[C@@H](C)NC1=O)C(C)C,Activity,,22.3%
CCCCCCCCCC(=O)N[C@@H](CC(C)C)C(=O)N[C@H](CCC(=O)O)C(=O)N[C@H](CCC(N)=O)C(=O)N[C@@H](C(=O)N[C@H](CC(C)C)C(=O)N[C@@H](CCC(N)=O)C(=O)N[C@@H]1COC(=O)[C@H]([C@@H](C)CC)NC(=O)[C@@H](CCC(N)=O)NC(=O)[C@H](CC(C)C)NC(=O)[C@H](CC(C)C)NC(=O)[C@@H](CCC(N)=O)NC(=O)[C@@H](CC(C)C)NC(=O)[C@H](C(C)C)NC1=O)C(C)C,Activity,,0.4%
CC[C@H](C)[C@@H]1NC(=O)[C@@H](CCC(N)=O)NC(=O)[C@H](CC(C)C)NC(=O)[C@H](CC(C)C)NC(=O)[C@@H](CCC(N)=O)NC(=O)[C@@H](CC(C)C)NC(=O)[C@@H](C(C)C)NC(=O)[C@H](NC(=O)[C@H](CCC(N)=O)NC(=O)[C@@H](CC(C)C)NC(=O)[C@H](NC(=O)[C@@H](CCC(N)=O)NC(=O)[C@@H](CCC(=O)O)NC(=O)[C@H](CC(C)C)NC(C)=O)C(C)C)COC1=O,Activity,,-2.8%
CCCCCCCCCC(=O)N[C@@H](CC(C)C)C(=O)N[C@H](CCC(=O)O)C(=O)N[C@H](CCC(N)=O)C(=O)N[C@@H](C(=O)N[C@H](CC(C)C)C(=O)N[C@@H](CCC(N)=O)C(=O)N[C@@H]1COC(=O)[C@H]([C@@H](C)CC)NC(=O)[C@@H](CCC(N)=O)NC(=O)[C@H](CC(C)C)NC(=O)[C@H](CC(C)C)NC(=O)[C@@H](CCC(N)=O)NC(=O)[C@@H](CC(C)C)NC(=O)[C@@H](C(C)C)NC1=O)C(C)C,Activity,filed as opener,174%
CCCCCCCCCC(=O)N[C@@H](CC(C)C)C(=O)N[C@H](CCC(=O)O)C(=O)N[C@H](CCC(N)=O)C(=O)N[C@@H](C(=O)N[C@H](CC(C)C)C(=O)N[C@@H](CCC(N)=O)C(=O)N[C@@H]1COC(=O)[C@H]([C@@H](C)CC)NC(=O)[C@@H](CCC(N)=O)NC(=O)[C@H](CC(C)C)NC(=O)[C@H](CC(C)C)NC(=O)[C@H](CCC(N)=O)NC(=O)[C@@H](CC(C)C)NC(=O)[C@@H](C(C)C)NC1=O)C(C)C,Activity,filed as opener,47.6%
CC[C@H](C)[C@@H]1NC(=O)[C@@H](CCC(N)=O)NC(=O)[C@H](CC(C)C)NC(=O)[C@H](CC(C)C)NC(=O)[C@@H](CCC(N)=O)NC(=O)[C@@H](CC(C)C)NC(=O)[C@@H](C(C)C)NC(=O)[C@H](NC(=O)[C@H](CCC(N)=O)NC(=O)[C@@H](CC(C)C)NC(=O)[C@H](NC(=O)[C@@H](CCC(N)=O)NC(=O)[C@@H](CCC(=O)O)NC(=O)[C@H](CC(C)C)NC(=O)CCO)C(C)C)COC1=O,Activity,,-3%

# Reference: ChEMBL document CHEMBL5331117, “X-Ray Conformation and Structure-Activity Relationships of MA026, a Reversible Tight Junction Opener” (J Med Chem, 2023)
